# Entries after “also recorded” stand apart in the source; their conditions may differ.
# What was measured:
# [1] = tested on: isolated human hair follicles; assay: in vitro hair follicle growth test (elongation of isolated human hair follicles in culture medium); type: cell-based
# Procedure: The effect of compounds on hair growth was assessed using an in vitro test which measures the elongation of isolated human hair follicles in a culture medium.
# This test includes the important step of isolating hair follicles having an undamaged hair bulb from human skin, for example, facelift skin, by microdissection.
# The critical step of separating the hair follicle with intact undamaged hair bulb from the subcutaneous fatty tissue in which it is situated accordingly involves severing the hair shaft of the follicle at a point below the epidermis of skin surface, so as to leave the hair bulb intact and undamaged while still bearing a portion of the hair shaft.
# Preferably, the hair shaft of the follicle is severed at the dermal-subcutaneous fat interface.
# Any suitable cutting instrument can be employed to sever the hair shaft in this manner, but a keratotome or a scalpel are preferred.
# The hair bulb with a hair Shaft stump attached is then isolated from the skin by mechanically separating the hair from loosely adhering subcutaneous fat which normally surrounds the hair bulb. This is achieved after the dermis or upper layer of the skin has been separated and removed, to avoid damaging the hair bulb as it is pulled away.
# The hair bulb together with hair shaft stump attached, is then transferred in an otherwise undamaged and fully functioning, viable state to a nutrient medium.
# The hair follicles isolated by the technique described herein are transferred to a suitable culture medium for subsequent testing of substances that can then influence their future development.
# The procedure now to be described represents a preferred method of culture and testing of hair growth.
# In accordance with the preferred method of culture, isolated hair follicles, […], are maintained in 1 ml of Williams E medium, either with or without a test hair growth substance, supplemented with […] (Penicillin and Streptomyein), Insulin (10 ng/ml) and Hydrocortisone (10 ng/ml). The medium was incubated at 37° C. in an atmosphere of 5% CO2 +95% air in individual wells of a 24 multiwell dish (Corning), which permits detailed measurements to be made of the length of individual hair follicles. The medium was refreshed once during the experiment after 4 days.
# Williams E medium is available from FLOW Laboratory under Catalogue No. 12-502. […]
# Daily growth rate and cumulative growth for each follicle were calculated by measuring the change in length of the follicles each day and from this the average of all the follicles was calculated.
# The response of an isolated hair follicle to a test substance, can accordingly be assessed by measuring the increase in length, if any, in the presence of a test substance against a control. […]
# [2] = storage stability in aqueous hair treatment composition (shampoo, conditioner or tonic); type: physicochemical; details: ambient temperature, 3 months
# Text: From these observations, it was realised that the αNH2 group of glutamine should be protected in order to stablise the molecule.
# [3] = 2 mM in Williams E medium & glucose
compound,measurement,setting,value
"NC(=O)CC[C@H](N)C(=O)O [Glutamine, glutamine]",Amount of hair grown in one week,[1]; [3],2.02 mm
same,Average daily rate of growth of hair over one week,[1]; [3],0.277 mm/d
same,potency as hair growth promoter after storage,[1]; after 3 months storage at 20° C.,diminished significantly
same,effect on linear hair growth (in words),"[1]; isolated human follicles in vitro, compared with the control",potent promoter of linear hair growth; also recorded: significant increase in hair growth
same,stability during storage in aqueous hair treatment composition,[2],a significant amount of the glutamine had been converted to pyroglutamic acid and ammonia

# Reference: US5559092A, “Cosmetic composition” (Chesebrough-Pond's USA Co. Division of Conopco, Inc., priority 1992, dated 1996)
